Measured values as given in US20250228239A1, “MOLECULES HAVING PESTICIDAL UTILITY, AND INTERMEDIATES, COMPOSITIONS, AND PROCESSES, RELATED THERETO” (priority 2024, published 2025).
Like-named read-outs stand apart in the source and are kept apart here.

What was measured:
Format in all cases: in vivo
[1] = system: Beet Armyworm (Spodoptera exigua, LAPHEG); assay: Bioassays on Beet Armyworm (BAW), 128-well diet tray assay; conditions: Spodoptera exigua, Beet Armyworm
In short: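 Mortality of second-instar larvae (1–5/well) on artificial diet treated with 50 μg/cm^2 compound, read after 5–7 days at 25° C.; values are means of eight wells.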

[2] = system: Cabbage Looper (Trichoplusia ni, TRIPNI); assay: Bioassays on Cabbage Looper (CL), 128-well diet tray assay; conditions: Trichoplusia ni, Cabbage Looper
In short: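 Percent mortality, averaged across eight replicate wells, after second-instar larvae (1–5 per well) fed for five to seven days on diet dosed at 50 μg/cm^2. Compound was applied in acetone-water 90:10 and dried; trays kept vented at 25° C under 14:10 photoperiod.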

[3] = system: Yellow Fever Mosquito (Aedes aegypti, AEDSAE); conditions: Yellow Fever Mosquito; for YFM: rating class; for YFM rating: Table ABC / ABC-DP rating
In short: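 Compounds from 4000 ppm DMSO stocks were diluted in 90:10 water/acetone and dispensed into wells, then infested with about 1-day-old larvae in liver-powder water. Covered plates were held at room temperature for 3 days and each well was scored for mortality against a rating scale; six replicate plates per compound.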

[4] = Table ABC / ABC-DP rating, read-out: BAW rating
[5] = Table ABC / ABC-DP rating, read-out: CL rating

SMILES	pest or weed control at 50 µg/cm2 ([1]; rating class, read-out: BAW)	pest or weed control at 50 µg/cm2 ([2]; rating class, read-out: CL)	YFM [3]	pest or weed control at 50 µg/cm2 [1, 4]	pest or weed control at 50 µg/cm2 [2, 5]	YFM rating [3]
O=C(Nc1ccc(F)c(NC(=O)C(F)F)c1F)c1cc(NC(=O)[C@H]2[C@H](c3cccc(Br)c3)C2(Cl)Cl)ccc1Cl (relative stereo) [F1600, trans-5-(3-(3-Bromophenyl)-2,2-dichlorocyclopropane-1-carboxamido)-2-chloro-N-(3-(2,2-difluoroacetamido)-2,4-difluorophenyl)benzamide]	50 to 100%	50 to 100%	A (80–100)	–	–	–
O=C(Nc1ccc(F)c(NC(=O)C(F)F)c1F)c1cc(NC(=O)[C@H]2[C@H](c3cccc(Cl)c3)C2(Cl)Cl)ccc1Cl (relative stereo) [F1601, trans-2-Chloro-5-(2,2-dichloro-3-(3-chlorophenyl)cyclopropane-1-carboxamido)-N-(3-(2,2-difluoroacetamido)-2,4-difluorophenyl)benzamide]	50 to 100%	50 to 100%	A (80–100)	–	–	–
O=C(Nc1ccc(F)c(NC(=O)C(F)F)c1F)c1cc(NC(=O)[C@H]2[C@H](c3cccc(F)c3)C2(Cl)Cl)ccc1Cl (relative stereo) [F1602, trans-2-Chloro-5-(2,2-dichloro-3-(3-fluorophenyl)cyclopropane-1-carboxamido)-N-(3-(2,2-difluoroacetamido)-2,4-difluorophenyl)benzamide]	50 to 100%	50 to 100%	A (80–100)	–	–	–
O=C(Nc1ccc(F)c(NC(=O)C(F)F)c1F)c1cc(NC(=O)[C@H]2[C@H](c3cc(Cl)cc(Br)c3)C2(Cl)Cl)ccc1Cl (relative stereo) [F1618, trans-5-(3-(3-Bromo-5-chlorophenyl)-2,2-dichlorocyclopropane-1-carboxamido)-2-chloro-N-(3-(2,2-difluoroacetamido)-2,4-difluorophenyl)benzamide]	50 to 100%	50 to 100%	A (80–100)	–	–	–
CC(=O)Nc1cc(F)c(F)cc1NC(=O)c1cc(NC(=O)[C@H]2[C@H](c3cc(Cl)cc(Cl)c3)C2(Cl)Cl)ccc1Cl (relative stereo) [F1634, trans-N-(2-Acetamido-4,5-difluorophenyl)-2-chloro-5-(2,2-dichloro-3-(3,5-dichlorophenyl)cyclopropane-1-carboxamido)benzamide]	50 to 100%	50 to 100%	B (More than 0 – Less than 80)	–	–	–
CC(=O)Nc1cc(F)ccc1NC(=O)c1cc(NC(=O)[C@H]2[C@H](c3cc(Cl)cc(Cl)c3)C2(Cl)Cl)ccc1Cl (relative stereo) [F1637, trans-N-(2-Acetamido-4-fluorophenyl)-2-chloro-5-(2,2-dichloro-3-(3,5-dichlorophenyl)cyclopropane-1-carboxamido)benzamide]	50 to 100%	50 to 100%	B (More than 0 – Less than 80)	–	–	–
Nc1c(F)ccc(NC(=O)c2cc(NC(=O)[C@H]3[C@H](c4cc(C(F)(F)F)cc(C(F)(F)F)c4)C3(Cl)Cl)ccc2Cl)c1F (relative stereo) [F1791, trans-N-(3-Amino-2,4-difluorophenyl)-5-(3-(3,5-bis(trifluoromethyl)phenyl)-2,2-dichlorocyclopropane-1-carboxamido)-2-chlorobenzamide]	–	–	–	50 to 100%	50 to 100%	A (80–100)
O=C(Nc1ccc(F)c(NC(=O)C(F)(F)F)c1F)c1cc(NC(=O)[C@H]2[C@H](c3cc(C(F)(F)F)cc(C(F)(F)F)c3)C2(Cl)Cl)ccc1Cl (relative stereo) [F1801, trans-5-(3-(3,5-bis(Trifluoromethyl)phenyl)-2,2-dichlorocyclopropane-1-carboxamido)-2-chloro-N-(2,4-difluoro-3-(2,2,2-trifluoroacetamido)phenyl)benzamide]	–	–	–	50 to 100%	50 to 100%	A (80–100)
O=C(Nc1ccc(F)c(NC(=O)C(F)F)c1F)c1cc(NC(=O)[C@H]2[C@H](c3cc(C(F)(F)F)cc(C(F)(F)F)c3)C2(Cl)Cl)ccc1Cl (relative stereo) [F1802, trans-5-(3-(3,5-bis(Trifluoromethyl)phenyl)-2,2-dichlorocyclopropane-1-carboxamido)-2-chloro-N-(3-(2,2-difluoroacetamido)-2,4-difluorophenyl)benzamide]	–	–	–	50 to 100%	50 to 100%	A (80–100)
CC(=O)Nc1c(F)ccc(NC(=O)c2cc(NC(=O)[C@H]3[C@H](c4cc(C(F)(F)F)cc(C(F)(F)F)c4)C3(Cl)Cl)ccc2Cl)c1F (relative stereo) [F1803, trans-N-(3-Acetamido-2,4-difluorophenyl)-5-(3-(3,5-bis(trifluoromethyl)phenyl)-2,2-dichlorocyclopropane-1-carboxamido)-2-chlorobenzamide]	–	–	–	50 to 100%	50 to 100%	A (80–100)
O=C(COC(F)(F)F)Nc1c(F)ccc(NC(=O)c2cc(NC(=O)[C@H]3[C@H](c4cc(C(F)(F)F)cc(C(F)(F)F)c4)C3(Cl)Cl)ccc2Cl)c1F (relative stereo) [F1804, trans-5-(3-(3,5-bis(Trifluoromethyl)phenyl)-2,2-dichlorocyclopropane-1-carboxamido)-2-chloro-N-(2,4-difluoro-3-(2-(trifluoromethoxy)acetamido)phenyl)benzamide]	–	–	–	50 to 100%	50 to 100%	A (80–100)
O=C(Nc1ccc(F)c(NC(=O)C2CCCO2)c1F)c1cc(NC(=O)[C@H]2[C@H](c3cc(C(F)(F)F)cc(C(F)(F)F)c3)C2(Cl)Cl)ccc1Cl (relative stereo) [F1805, trans-N-(3-(5-(3-(3,5-bis(Trifluoromethyl)phenyl)-2,2-dichlorocyclopropane-1-carboxamido)-2-chlorobenzamido)-2,6-difluorophenyl)tetrahydrofuran-2-carboxamide]	–	–	–	50 to 100%	50 to 100%	A (80–100)
CCCC(=O)Nc1c(F)ccc(NC(=O)c2cc(NC(=O)[C@H]3[C@H](c4cc(C(F)(F)F)cc(C(F)(F)F)c4)C3(Cl)Cl)ccc2Cl)c1F (relative stereo) [F1806, trans-5-(3-(3,5-bis(Trifluoromethyl)phenyl)-2,2-dichlorocyclopropane-1-carboxamido)-N-(3-butyramido-2,4-difluorophenyl)-2-chlorobenzamide]	–	–	–	50 to 100%	50 to 100%	A (80–100)
O=C(Nc1ccc(F)c(NC(=O)C(F)(F)C(F)(F)C(F)(F)F)c1F)c1cc(NC(=O)[C@H]2[C@H](c3cc(C(F)(F)F)cc(C(F)(F)F)c3)C2(Cl)Cl)ccc1Cl (relative stereo) [F1825, trans-5-(3-(3,5-bis(Trifluoromethyl)phenyl)-2,2-dichlorocyclopropane-1-carboxamido)-2-chloro-N-(2,4-difluoro-3-(2,2,3,3,4,4,4-heptafluorobutanamido)phenyl)benzamide]	–	–	–	50 to 100%	50 to 100%	A (80–100)
O=C(NCC(F)(F)F)c1cc(NC(=O)[C@H]2[C@H](c3cc(C(F)(F)F)ccc3Cl)C2(Cl)Cl)ccc1Cl (relative stereo) [F2001, trans-2-Chloro-5-(2,2-dichloro-3-(2-chloro-5-(trifluoromethyl)phenyl)-cyclopropane-1-carboxamido)-N-(2,2,2-trifluoroethyl)benzamide]	–	–	–	50 to 100%	50 to 100%	A (80–100)
O=C(NCC(F)(F)F)c1cc(NC(=O)[C@H]2[C@H](c3c(F)c(F)c(F)c(F)c3F)C2(Cl)Cl)ccc1Cl (relative stereo) [F2002, trans-2-Chloro-5-(2,2-dichloro-3-(perfluorophenyl)cyclopropane-1-carboxamido)-N-(2,2,2-trifluoroethyl)benzamide]	–	–	–	50 to 100%	50 to 100%	A (80–100)
O=C(NCC(F)(F)F)c1cc(NC(=O)[C@H]2[C@H](c3cc(F)c(F)c(Br)c3)C2(Cl)Cl)ccc1Cl (relative stereo) [F2003, trans-5-(3-(3-Bromo-4,5-difluorophenyl)-2,2-dichlorocyclopropane-1-carboxamido)-2-chloro-N-(2,2,2-trifluoroethyl)benzamide]	–	–	–	50 to 100%	50 to 100%	A (80–100)
O=C(NCC(F)(F)F)c1cc(NC(=O)[C@H]2[C@@H](c3cc(F)c(F)c(Br)c3)C2(Cl)Cl)ccc1Cl (relative stereo) [F2004, cis-5-(3-(3-Bromo-4,5-difluorophenyl)-2,2-dichlorocyclopropane-1-carboxamido)-2-chloro-N-(2,2,2-trifluoroethyl)benzamide]	–	–	–	50 to 100%	50 to 100%	A (80–100)
O=C(NCC(F)(F)C(F)(F)F)c1c(Cl)ccc(NC(=O)[C@H]2[C@H](c3ccc(F)c(Cl)c3)C2(Cl)Cl)c1Cl (relative stereo) [F2005, trans-2,6-Dichloro-3-(2,2-dichloro-3-(3-chloro-4-fluorophenyl)cyclopropane-1-carboxamido)-N-(2,2,3,3,3-pentafluoropropyl)benzamide]	–	–	–	50 to 100%	50 to 100%	A (80–100)
